Results reported in patent US20260216207A1, “7-CARBONYLSTAUROSPORINE DERIVATIVE, PREPARATION METHOD THEREFOR, AND USE THEREOF” (HANGZHOU KEXING BIOCHEM. CO., LTD., priority 2023, published 2026).
pIC50: −log10 of the molar value. Like-named read-outs stand apart in the source and are kept apart here.

Tests used:
Type in all cases: biochemical
[1] = target: PIM-1 kinase (Homo sapiens, UniProt P11309); assay: HTRF KinEASE kinase assay, PIM-1 inhibitory activity
From the text: Inhibitory activities against PIM-1, TRKA, TRKB, FLT3, PKCδ, PKCε, PKCη, PAK4, PLK1, ROCK2, and IKKβ kinases were all determined using an HTRF®KinEASE™ kinase assay kit based on a time-resolved fluorescence technology. 7-carbonylstaurosporine (7OSTA) and TP-3654 were used as positive controls, and 3 duplicate wells were set in parallel. Specific operation steps are as follows. • (1) A kinase buffer was formulated and then used to formulate compounds to be tested, a positive drug, a substrate, kinases, and adenosine triphosphate (ATP). • (2) 2 μL of the substrate, 2 μL of the kinases (the kinases were not added in a negative control group), 4 μL of the compounds to be tested or the positive drug (4 μL of a buffer was added in a positive control group, and 6 μL of a buffer was added in the negative control group), and 2 μL of the ATP were sequentially added into each well of a 384-well microplate, and the microplate was sealed with a membrane and then centrifuged for uniform mixing. • (3) According to different types of the kinases, incubation was performed in an incubator at 37° C. for a specific time. • (4) A detection solution was formulated using XL-665, an antibody, and a detection buffer, 10 µL of the detection solution was added into each well, the microplate was sealed with a membrane and then centrifuged for uniform mixing, and standing was performed at room temperature for 1 hour. • (5) Fluorescence value intensities F1 and F2 at wavelengths of 620 nm and 665 nm were measured using a multifunctional microplate tester, respectively. A signal ratio was calculated as F2/F1×10000, and then an IC50 value was calculated using Graphpad Prism 8 software.

[2] = target: TRKA (Homo sapiens, UniProt P04629); assay: HTRF KinEASE kinase assay, TRKA (kinase selectivity)
TRKA, sequence (P04629 33-796, species assumed): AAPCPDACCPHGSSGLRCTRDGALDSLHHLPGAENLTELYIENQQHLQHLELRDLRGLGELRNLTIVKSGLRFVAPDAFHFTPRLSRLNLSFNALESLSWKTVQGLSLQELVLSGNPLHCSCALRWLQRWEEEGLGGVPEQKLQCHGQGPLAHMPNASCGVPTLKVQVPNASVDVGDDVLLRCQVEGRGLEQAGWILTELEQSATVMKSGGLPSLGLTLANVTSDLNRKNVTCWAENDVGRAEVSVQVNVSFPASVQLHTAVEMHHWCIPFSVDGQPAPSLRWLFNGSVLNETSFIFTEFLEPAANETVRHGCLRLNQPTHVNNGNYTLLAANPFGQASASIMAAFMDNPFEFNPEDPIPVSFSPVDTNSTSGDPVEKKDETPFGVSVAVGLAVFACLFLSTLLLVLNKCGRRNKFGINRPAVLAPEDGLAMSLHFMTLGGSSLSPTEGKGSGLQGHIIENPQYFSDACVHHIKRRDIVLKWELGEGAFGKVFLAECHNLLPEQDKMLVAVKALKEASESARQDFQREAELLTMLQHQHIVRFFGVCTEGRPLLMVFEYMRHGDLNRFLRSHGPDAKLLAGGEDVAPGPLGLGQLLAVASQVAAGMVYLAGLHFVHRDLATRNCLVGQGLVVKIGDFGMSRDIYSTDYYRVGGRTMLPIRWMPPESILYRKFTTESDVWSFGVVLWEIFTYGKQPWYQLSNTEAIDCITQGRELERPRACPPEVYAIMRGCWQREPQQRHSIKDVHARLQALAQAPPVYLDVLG
Method: (§1) Inhibitory activities against PIM-1, TRKA, TRKB, FLT3, PKCδ, PKCε, PKCη, PAK4, PLK1, ROCK2, and IKKβ kinases were all determined using an HTRF®KinEASE™ kinase assay kit based on a time-resolved fluorescence technology. 7-carbonylstaurosporine (7OSTA) and TP-3654 were used as positive controls, and 3 duplicate wells were set in parallel. […] A signal ratio was calculated as F2/F1×10000, and then an IC50 value was calculated using Graphpad Prism 8 software.

[3] = target: T1, FLT3 (Homo sapiens, UniProt P36888); assay: HTRF KinEASE kinase assay, FLT3 (kinase selectivity)
T1 sequence (P36888 27-993): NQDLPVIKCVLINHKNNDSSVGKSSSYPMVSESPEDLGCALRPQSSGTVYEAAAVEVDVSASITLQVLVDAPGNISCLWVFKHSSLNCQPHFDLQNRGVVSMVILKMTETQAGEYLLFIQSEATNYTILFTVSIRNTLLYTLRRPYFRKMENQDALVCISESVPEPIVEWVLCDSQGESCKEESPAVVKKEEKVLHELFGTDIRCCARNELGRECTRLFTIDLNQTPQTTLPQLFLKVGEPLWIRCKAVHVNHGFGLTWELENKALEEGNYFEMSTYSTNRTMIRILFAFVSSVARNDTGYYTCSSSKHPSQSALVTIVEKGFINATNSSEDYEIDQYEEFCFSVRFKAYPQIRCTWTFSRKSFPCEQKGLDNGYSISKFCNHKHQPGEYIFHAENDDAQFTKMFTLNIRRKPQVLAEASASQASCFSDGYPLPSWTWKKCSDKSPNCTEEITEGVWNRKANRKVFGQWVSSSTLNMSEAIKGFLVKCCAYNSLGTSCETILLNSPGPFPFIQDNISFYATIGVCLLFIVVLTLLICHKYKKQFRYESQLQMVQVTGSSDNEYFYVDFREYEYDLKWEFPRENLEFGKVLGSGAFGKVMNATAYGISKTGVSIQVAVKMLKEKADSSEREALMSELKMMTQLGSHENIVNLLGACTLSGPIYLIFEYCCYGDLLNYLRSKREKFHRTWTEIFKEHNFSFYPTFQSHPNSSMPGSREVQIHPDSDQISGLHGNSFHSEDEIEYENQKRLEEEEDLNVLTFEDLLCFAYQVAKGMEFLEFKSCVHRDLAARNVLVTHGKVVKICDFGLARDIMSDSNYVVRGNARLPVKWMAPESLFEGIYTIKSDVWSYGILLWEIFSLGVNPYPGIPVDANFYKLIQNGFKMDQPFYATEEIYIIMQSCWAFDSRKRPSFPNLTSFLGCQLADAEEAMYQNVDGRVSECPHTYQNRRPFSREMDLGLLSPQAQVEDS
Method: as §1

[4] = target: PKCδ (Homo sapiens, UniProt Q05655); assay: HTRF KinEASE kinase assay, PKCδ (kinase selectivity)
Method: as §1

[5] = target: TRKB (Homo sapiens, UniProt Q16620); assay: HTRF KinEASE kinase assay, TRKB (kinase selectivity)
TRKB, sequence (Q16620 32-822, species assumed): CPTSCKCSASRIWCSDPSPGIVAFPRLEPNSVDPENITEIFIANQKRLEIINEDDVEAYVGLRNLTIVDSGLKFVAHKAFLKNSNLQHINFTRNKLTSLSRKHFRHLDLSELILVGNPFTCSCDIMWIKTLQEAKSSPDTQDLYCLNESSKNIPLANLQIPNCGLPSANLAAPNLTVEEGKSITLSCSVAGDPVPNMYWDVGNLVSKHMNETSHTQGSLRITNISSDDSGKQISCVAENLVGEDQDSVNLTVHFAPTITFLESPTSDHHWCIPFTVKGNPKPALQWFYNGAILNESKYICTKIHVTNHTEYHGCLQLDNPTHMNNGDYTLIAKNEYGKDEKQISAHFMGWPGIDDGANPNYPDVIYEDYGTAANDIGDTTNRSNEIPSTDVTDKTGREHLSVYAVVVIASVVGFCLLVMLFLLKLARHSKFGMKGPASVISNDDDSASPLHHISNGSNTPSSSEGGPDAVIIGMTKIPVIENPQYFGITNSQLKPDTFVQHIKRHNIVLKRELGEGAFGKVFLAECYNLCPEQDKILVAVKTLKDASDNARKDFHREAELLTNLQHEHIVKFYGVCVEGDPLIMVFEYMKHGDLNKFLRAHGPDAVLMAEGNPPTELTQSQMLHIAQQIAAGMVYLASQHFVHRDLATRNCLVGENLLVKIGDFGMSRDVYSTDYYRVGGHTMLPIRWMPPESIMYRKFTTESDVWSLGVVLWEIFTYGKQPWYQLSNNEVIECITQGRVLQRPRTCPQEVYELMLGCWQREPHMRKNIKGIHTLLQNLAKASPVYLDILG
Method: as §1

[6] = target: T2, PKCε (Homo sapiens, UniProt Q02156); assay: HTRF KinEASE kinase assay, PKCε (kinase selectivity)
T2 sequence (Q02156 1-737): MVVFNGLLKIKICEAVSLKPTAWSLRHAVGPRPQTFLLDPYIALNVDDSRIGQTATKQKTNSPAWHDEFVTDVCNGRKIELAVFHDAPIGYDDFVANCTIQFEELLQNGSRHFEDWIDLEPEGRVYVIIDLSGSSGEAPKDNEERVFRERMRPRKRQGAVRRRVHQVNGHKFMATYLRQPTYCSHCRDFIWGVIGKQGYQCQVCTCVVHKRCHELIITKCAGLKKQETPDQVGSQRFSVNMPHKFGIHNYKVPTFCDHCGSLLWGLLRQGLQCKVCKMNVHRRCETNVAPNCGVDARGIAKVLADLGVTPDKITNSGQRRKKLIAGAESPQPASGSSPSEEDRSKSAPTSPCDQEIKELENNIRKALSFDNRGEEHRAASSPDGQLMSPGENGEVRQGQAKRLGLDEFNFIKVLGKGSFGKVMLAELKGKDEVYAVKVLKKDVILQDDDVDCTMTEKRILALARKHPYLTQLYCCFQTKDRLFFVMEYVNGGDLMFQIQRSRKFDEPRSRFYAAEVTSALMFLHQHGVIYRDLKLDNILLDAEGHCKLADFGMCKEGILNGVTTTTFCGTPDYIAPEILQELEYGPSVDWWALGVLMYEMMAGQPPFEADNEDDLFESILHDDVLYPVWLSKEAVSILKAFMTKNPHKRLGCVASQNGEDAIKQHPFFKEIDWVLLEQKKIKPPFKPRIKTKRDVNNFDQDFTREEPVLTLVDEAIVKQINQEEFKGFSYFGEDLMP
Method: as §1

[7] = target: PKCη (Homo sapiens, UniProt P24723); assay: HTRF KinEASE kinase assay, PKCη (kinase selectivity)
PKCη, sequence (P24723 whole entry): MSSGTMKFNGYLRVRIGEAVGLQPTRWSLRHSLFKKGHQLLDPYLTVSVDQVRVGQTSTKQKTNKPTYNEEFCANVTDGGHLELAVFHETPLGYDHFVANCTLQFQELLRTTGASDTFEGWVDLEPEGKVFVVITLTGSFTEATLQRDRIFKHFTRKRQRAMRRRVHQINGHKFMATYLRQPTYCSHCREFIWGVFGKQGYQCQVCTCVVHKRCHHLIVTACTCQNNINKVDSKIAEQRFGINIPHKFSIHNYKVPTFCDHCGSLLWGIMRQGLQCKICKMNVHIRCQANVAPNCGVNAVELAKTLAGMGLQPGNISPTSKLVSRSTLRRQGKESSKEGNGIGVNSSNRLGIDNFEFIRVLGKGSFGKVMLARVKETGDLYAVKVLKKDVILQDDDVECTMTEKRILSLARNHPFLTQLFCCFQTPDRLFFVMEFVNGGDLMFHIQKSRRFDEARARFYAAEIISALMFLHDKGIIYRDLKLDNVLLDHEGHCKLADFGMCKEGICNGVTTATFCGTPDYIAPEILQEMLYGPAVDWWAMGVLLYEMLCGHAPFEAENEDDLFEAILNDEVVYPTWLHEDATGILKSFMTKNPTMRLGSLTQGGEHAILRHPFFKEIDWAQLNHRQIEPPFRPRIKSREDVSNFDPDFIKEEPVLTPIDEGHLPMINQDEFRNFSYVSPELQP
Method: as §1

[8] = target: PAK4 (Homo sapiens, UniProt O96013); assay: HTRF KinEASE kinase assay, PAK4 (kinase selectivity)
Method: as §1

[9] = target: PLK1 (Homo sapiens, UniProt P53350); assay: HTRF KinEASE kinase assay, PLK1 (kinase selectivity)
PLK1, sequence (P53350 whole entry, species assumed): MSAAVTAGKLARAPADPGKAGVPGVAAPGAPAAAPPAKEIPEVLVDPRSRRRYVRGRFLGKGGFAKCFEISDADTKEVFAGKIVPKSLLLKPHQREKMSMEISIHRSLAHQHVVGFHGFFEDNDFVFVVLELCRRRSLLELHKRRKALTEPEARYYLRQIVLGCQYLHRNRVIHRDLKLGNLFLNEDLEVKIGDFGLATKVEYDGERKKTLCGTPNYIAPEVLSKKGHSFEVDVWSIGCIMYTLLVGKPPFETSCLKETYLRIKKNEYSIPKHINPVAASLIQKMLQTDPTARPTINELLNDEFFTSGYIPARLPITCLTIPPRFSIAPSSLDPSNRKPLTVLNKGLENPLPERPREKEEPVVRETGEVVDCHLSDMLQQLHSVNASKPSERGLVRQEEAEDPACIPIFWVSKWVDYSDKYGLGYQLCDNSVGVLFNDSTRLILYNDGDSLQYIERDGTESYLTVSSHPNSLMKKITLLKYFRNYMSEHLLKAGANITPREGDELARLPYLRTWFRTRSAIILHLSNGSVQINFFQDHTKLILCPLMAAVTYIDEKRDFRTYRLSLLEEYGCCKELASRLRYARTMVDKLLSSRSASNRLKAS
Method: as §1

[10] = target: ROCK2 (Homo sapiens, UniProt O75116); assay: HTRF KinEASE kinase assay, ROCK2 (kinase selectivity)
ROCK2, sequence (O75116 whole entry, species assumed): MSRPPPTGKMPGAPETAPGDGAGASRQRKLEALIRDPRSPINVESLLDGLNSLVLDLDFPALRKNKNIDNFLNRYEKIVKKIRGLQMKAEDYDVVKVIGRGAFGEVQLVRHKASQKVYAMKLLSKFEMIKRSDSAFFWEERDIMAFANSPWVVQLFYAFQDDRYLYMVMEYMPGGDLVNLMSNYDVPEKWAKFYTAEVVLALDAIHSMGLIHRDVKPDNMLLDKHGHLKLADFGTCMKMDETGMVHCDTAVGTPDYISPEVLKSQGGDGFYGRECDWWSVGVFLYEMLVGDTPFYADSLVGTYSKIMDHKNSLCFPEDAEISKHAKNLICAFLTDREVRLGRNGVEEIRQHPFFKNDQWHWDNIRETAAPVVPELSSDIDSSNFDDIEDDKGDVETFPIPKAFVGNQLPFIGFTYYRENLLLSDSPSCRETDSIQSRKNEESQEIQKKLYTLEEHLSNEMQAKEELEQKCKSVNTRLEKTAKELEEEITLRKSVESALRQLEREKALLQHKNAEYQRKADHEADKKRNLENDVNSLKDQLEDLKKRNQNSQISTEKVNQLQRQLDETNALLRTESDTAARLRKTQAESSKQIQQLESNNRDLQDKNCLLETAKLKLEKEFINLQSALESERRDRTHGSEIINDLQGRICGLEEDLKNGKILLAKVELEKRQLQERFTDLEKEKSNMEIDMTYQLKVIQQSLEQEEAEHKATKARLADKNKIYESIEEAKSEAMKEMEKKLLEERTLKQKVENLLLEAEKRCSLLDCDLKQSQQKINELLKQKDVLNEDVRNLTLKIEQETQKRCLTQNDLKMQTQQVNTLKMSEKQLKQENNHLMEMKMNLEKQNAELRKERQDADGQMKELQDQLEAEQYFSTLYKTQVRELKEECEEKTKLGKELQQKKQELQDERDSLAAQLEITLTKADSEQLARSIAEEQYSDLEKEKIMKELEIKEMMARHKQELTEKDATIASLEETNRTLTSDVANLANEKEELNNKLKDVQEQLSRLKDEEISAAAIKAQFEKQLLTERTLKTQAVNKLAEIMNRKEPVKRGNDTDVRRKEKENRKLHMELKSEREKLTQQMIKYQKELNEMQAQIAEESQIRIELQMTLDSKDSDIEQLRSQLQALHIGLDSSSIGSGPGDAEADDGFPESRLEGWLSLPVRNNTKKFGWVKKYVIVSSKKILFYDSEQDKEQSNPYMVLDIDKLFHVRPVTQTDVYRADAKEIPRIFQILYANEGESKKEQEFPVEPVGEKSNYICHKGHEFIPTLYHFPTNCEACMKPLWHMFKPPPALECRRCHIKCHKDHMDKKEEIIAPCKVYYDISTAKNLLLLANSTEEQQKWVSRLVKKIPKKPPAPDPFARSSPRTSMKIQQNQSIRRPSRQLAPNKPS
Method: as §1

[11] = target: T3, IKKβ (Homo sapiens, UniProt O14920); assay: HTRF KinEASE kinase assay, IKKβ (kinase selectivity)
T3 sequence (O14920 1-756): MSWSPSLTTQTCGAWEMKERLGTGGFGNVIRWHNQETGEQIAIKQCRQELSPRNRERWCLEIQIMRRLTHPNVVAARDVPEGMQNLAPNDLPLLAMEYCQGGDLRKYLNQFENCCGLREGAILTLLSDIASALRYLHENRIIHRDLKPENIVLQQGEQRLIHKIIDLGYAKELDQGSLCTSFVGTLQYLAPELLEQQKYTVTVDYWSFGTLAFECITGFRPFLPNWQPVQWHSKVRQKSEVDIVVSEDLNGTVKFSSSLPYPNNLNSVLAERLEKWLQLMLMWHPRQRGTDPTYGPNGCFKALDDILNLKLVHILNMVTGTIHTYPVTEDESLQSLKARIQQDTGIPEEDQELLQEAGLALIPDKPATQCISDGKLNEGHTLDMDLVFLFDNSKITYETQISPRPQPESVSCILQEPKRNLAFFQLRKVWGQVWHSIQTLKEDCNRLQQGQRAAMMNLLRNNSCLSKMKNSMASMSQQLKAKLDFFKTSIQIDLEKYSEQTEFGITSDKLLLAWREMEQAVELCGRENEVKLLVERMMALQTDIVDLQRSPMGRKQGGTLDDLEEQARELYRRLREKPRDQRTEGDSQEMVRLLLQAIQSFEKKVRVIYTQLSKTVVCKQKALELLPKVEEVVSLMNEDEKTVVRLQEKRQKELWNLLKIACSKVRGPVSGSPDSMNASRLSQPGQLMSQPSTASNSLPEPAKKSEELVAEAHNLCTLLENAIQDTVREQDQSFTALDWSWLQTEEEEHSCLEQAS
Method: as §1

[12] = HTRF KinEASE kit, 3 duplicate wells, read-out: PIM-1 kinase inhibitory activity (IC50)

PIM-1 kinase, sequence (P11309 whole entry): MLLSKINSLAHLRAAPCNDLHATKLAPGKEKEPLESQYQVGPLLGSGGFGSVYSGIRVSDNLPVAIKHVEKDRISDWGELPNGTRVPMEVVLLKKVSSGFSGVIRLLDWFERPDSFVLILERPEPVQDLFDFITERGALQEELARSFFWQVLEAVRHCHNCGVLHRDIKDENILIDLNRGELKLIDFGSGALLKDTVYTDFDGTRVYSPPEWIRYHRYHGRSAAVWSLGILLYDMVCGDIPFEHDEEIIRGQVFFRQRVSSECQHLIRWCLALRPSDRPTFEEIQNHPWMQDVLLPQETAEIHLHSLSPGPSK

Compound: CCC(=O)N(C)[C@@H]1C[C@H]2O[C@@](C)([C@@H]1OC)n1c3ccccc3c3c4c(c5c6ccccc6n2c5c31)C(=O)NC4=O [Compound 1]
- pIC50 [1, 12]: 7.39

Compound: CCCC(=O)N(C)[C@@H]1C[C@H]2O[C@@](C)([C@@H]1OC)n1c3ccccc3c3c4c(c5c6ccccc6n2c5c31)C(=O)NC4=O [Compound 2]
- pIC50 [1, 12]: 7.08

Compound: CCCCC(=O)N(C)[C@@H]1C[C@H]2O[C@@](C)([C@@H]1OC)n1c3ccccc3c3c4c(c5c6ccccc6n2c5c31)C(=O)NC4=O [Compound 3]
- pIC50 [1, 12]: < 6.00

Compound: CCCCCC(=O)N(C)[C@@H]1C[C@H]2O[C@@](C)([C@@H]1OC)n1c3ccccc3c3c4c(c5c6ccccc6n2c5c31)C(=O)NC4=O [Compound 4]
- pIC50 [1, 12]: < 6.00

Compound: CCCCCCC(=O)N(C)[C@@H]1C[C@H]2O[C@@](C)([C@@H]1OC)n1c3ccccc3c3c4c(c5c6ccccc6n2c5c31)C(=O)NC4=O [Compound 5]
- pIC50 [1, 12]: < 6.00

Compound: CCCCCCCC(=O)N(C)[C@@H]1C[C@H]2O[C@@](C)([C@@H]1OC)n1c3ccccc3c3c4c(c5c6ccccc6n2c5c31)C(=O)NC4=O [Compound 6]
- pIC50 [1, 12]: < 6.00

Compound: CN[C@@H]1C[C@H]2O[C@@](C)([C@@H]1OC)n1c3ccccc3c3c4c(c5c6ccccc6n2c5c31)C(=O)NC4=O [Compound 7OSTA, 7-carbonylstaurosporine]
- pIC50 [1]: 8.27
- pIC50 [2]: 9.40
- pIC50 [3]: 7.82
- pIC50 [4]: 8.85
- pIC50 [5]: 8.62
- pIC50 [6]: 8.64
- pIC50 [7]: 8.68
- pIC50 [8]: 7.43
- pIC50 [9]: 6.51
- pIC50 [10]: 7.44
- pIC50 [11]: < 6.00

Compound: CO[C@@H]1[C@H](N(C)C(=O)C2CC2)C[C@H]2O[C@]1(C)n1c3ccccc3c3c4c(c5c6ccccc6n2c5c31)C(=O)NC4=O [Compound 7]
- pIC50 [1, 12]: 6.35

Compound: CO[C@@H]1[C@H](N(C)C(=O)c2cccs2)C[C@H]2O[C@]1(C)n1c3ccccc3c3c4c(c5c6ccccc6n2c5c31)C(=O)NC4=O [Compound 8]
- pIC50 [1, 12]: 7.28

Compound: CO[C@@H]1[C@H](N(C)C(=O)c2ccc3c(c2)OCO3)C[C@H]2O[C@]1(C)n1c3ccccc3c3c4c(c5c6ccccc6n2c5c31)C(=O)NC4=O [Compound 9]
- pIC50 [1, 12]: < 6.00

Compound: CO[C@@H]1[C@H](N(C)C(=O)C=C(C)C)C[C@H]2O[C@]1(C)n1c3ccccc3c3c4c(c5c6ccccc6n2c5c31)C(=O)NC4=O [Compound 10]
- pIC50 [1, 12]: 7.09

Compound: CO[C@@H]1[C@H](N(C)C(=O)/C=C/c2ccccc2)C[C@H]2O[C@]1(C)n1c3ccccc3c3c4c(c5c6ccccc6n2c5c31)C(=O)NC4=O [Compound 11]
- pIC50 [1, 12]: < 6.00

Compound: CO[C@@H]1[C@H](N(C)C(=O)CCC(=O)O)C[C@H]2O[C@]1(C)n1c3ccccc3c3c4c(c5c6ccccc6n2c5c31)C(=O)NC4=O [Compound 12]
- pIC50 [1, 12]: 7.37

Compound: CO[C@@H]1[C@H](N(C)C(=O)CCCC(=O)O)C[C@H]2O[C@]1(C)n1c3ccccc3c3c4c(c5c6ccccc6n2c5c31)C(=O)NC4=O [Compound 13]
- pIC50 [1, 12]: 7.41

Compound: CO[C@@H]1[C@H](N(C)C(=O)CSCC(=O)O)C[C@H]2O[C@]1(C)n1c3ccccc3c3c4c(c5c6ccccc6n2c5c31)C(=O)NC4=O [Compound 14]
- pIC50 [1, 12]: 7.27

Compound: CO[C@@H]1[C@H](N(C)C(=O)CCCCC(=O)O)C[C@H]2O[C@]1(C)n1c3ccccc3c3c4c(c5c6ccccc6n2c5c31)C(=O)NC4=O [Compound 15]
- pIC50 [1, 12]: 7.21

Compound: CO[C@@H]1[C@H](N(C)C(=O)CCCCCCC(=O)O)C[C@H]2O[C@]1(C)n1c3ccccc3c3c4c(c5c6ccccc6n2c5c31)C(=O)NC4=O [Compound 16]
- pIC50 [1, 12]: 7.18

Compound: CO[C@@H]1[C@H](N(C)C(=O)CCC(=O)Nc2cc[nH]n2)C[C@H]2O[C@]1(C)n1c3ccccc3c3c4c(c5c6ccccc6n2c5c31)C(=O)NC4=O [Compound 18]
- pIC50 [1, 12]: 7.49

Compound: CC(C)(O)[C@H]1CC[C@H](Nc2ccc3ncc(-c4cccc(C(F)(F)F)c4)n3n2)CC1 [TP-3654, reference compound]
- pIC50 [1, 12]: 7.51
